Paper PMC6629693 (Scientific Reports, 2019)
“Also recorded” adds a separate entry of the source. Where two headings read alike, the source gives them in different places.

How the values were obtained:
D206A HtxB [1] = target: T1, D206A HtxB (Stutzerimonas stutzeri, UniProt O69061, D238A)
WT HtxB [2] = target: T2, WT HtxB (Stutzerimonas stutzeri, UniProt O69061); details: pH 5
[3] = Fig. 1; no reference given; cited from earlier work
HtxB = details: cited from earlier work
D206A HtxB [4] = target: T1, D206A HtxB; details: 10 mM phosphite, pH range 4-9
WT HtxB [5] = target: T2, WT HtxB; assay: biochemical
D206A HtxB [6] = target: T1, D206A HtxB; assay: biochemical
WT HtxB [7] = target: T2, WT HtxB; details: 10 mM phosphite, 1 mM HtxB
D206N HtxB = D206N HtxB (Stutzerimonas stutzeri, UniProt O69061, D238N); assay: biochemical; assay type: binding, Pseudomonas stutzeri
Sequence of D206N HtxB (O69061 34-298 D238N limits assumed): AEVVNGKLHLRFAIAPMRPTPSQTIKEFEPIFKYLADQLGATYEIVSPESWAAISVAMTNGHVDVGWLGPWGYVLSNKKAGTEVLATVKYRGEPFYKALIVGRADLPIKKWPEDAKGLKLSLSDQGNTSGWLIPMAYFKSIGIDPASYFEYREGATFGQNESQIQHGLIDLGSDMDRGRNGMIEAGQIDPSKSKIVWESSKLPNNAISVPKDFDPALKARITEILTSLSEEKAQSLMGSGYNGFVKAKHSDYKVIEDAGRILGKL

T2 sequence (O69061 34-298): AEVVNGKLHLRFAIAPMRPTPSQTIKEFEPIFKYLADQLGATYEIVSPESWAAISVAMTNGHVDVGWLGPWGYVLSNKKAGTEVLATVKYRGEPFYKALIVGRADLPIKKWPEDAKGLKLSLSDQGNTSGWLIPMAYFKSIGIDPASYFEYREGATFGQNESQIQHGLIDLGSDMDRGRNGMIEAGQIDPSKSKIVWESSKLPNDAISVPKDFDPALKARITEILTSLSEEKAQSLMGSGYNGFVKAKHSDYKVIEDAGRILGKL
T1 sequence (O69061 34-298 D238A): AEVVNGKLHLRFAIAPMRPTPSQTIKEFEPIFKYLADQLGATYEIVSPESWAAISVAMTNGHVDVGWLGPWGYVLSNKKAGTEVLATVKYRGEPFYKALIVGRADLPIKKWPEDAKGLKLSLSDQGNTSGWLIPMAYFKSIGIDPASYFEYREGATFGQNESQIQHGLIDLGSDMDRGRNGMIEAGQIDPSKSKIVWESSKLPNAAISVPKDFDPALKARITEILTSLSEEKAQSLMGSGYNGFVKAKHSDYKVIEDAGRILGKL

Row | Compound | binding (in words) (D206A HtxB [1]; pH 7.4) | Kd (D206A HtxB [1]; read-out: Calculated Kd, pH 5) | fold lower affinity than hypophosphite at the same pH (WT HtxB [2]) | pKa2 [3] | Kd (HtxB; pH 7.4) | linebroadening of the 31P peak (in words) (D206A HtxB [4]) | Kd (WT HtxB [5]) | Kd (D206A HtxB [6]) | pH of maximal line broadening (WT HtxB [7]; pH 9-4) | linebroadening of the 31P peak (in words) (WT HtxB [7]; reducing pH from 9 to 4) | Kd (D206N HtxB) | Kd (D206N HtxB; read-out: Calculated Kd, pH 5) | binding (in words) (HtxB) | ligand concentration at which protein was not saturated in full titration (D206N HtxB; 50 mM HEPES pH 7.4) | binding (in words) (D206N HtxB; 50 mM HEPES pH 7.4, 100 mM phosphate)
1 | O=[PH](O)O [phosphite] | No evidence of D206A HtxB binding | > 100 mM | ca. 1000 × | 1.3 | > 10 mM | did not show significant linebroadening | 1.74 mM | > 100 mM | 6 | significant linebroadening | > 100 mM | > 100 mM |  |  | 
2 | phosphate |  |  |  |  |  |  |  |  |  |  |  |  | does not bind | > 100 mM | weakly; also recorded: incredibly weak
